Measured values published in patent publication US20200060273A1, “FUNGICIDAL COMPOSITIONS” (Novus International, Inc., priority 2018, published 2020).
Where two headings read alike, the source gives them in different places.

How the values were obtained:
[1] = test system: Podosphaera xanthii (powdery mildew); assay: in vitro leaf disc assay on cucumber cotyledons; type: cell-based
Fusarium graminearum = type: cell-based
lettuce = settings: in vivo
Description: (§1) These experiments were carried out to test the phytotoxic effects of HMTBA on cucurbit (cucumber), strawberry, pepper, and lettuce target crops. Young plants of Jackson Classic variety cucumber, Tango variety head lettuce, Compadre variety bell pepper, and Festival variety strawberry were grown under standard greenhouse conditions. One week-post planting cucumber and pepper plants, three week old lettuce, and four month old strawberry plants were treated.
(§2) Foliar sprays for HMTBA dilutions at 0.01, 0.1, 0.2 and 1.0% ai/v were applied twice per week for two weeks (total of four applications).
(§3) Height and width for each plant was measured (centimeters) for indication of growth changes between treated and untreated plants. Phytotoxicity ratings were taken weekly on a 0-10 scale, where 0 indicates no crop injury and 10 is damage (yellowing, scarring, wilting, necrosis, death) to the total plant from the treatment.
(§4) Area Under Disease Progress Curve (AUDPC), Abbot's formulation for percent control and all statistics were analyzed using ANOVA mean comparison with LSD test and a=0.05. Bartlett's test for homogeneity of variances was used to determine the need for data transformations. Letters in tables represent means separation significant and 0.05.

strawberry = settings: in vivo
Description: as §1, §2, §3, §4

pepper = settings: in vivo
Description: as §1, §2, §3, §4

cucumber = settings: in vivo
Description: as §1, §2, §3, §4

Botrytis cinerea = assay: in vitro mycelial disc assay; type: cell-based

SMILES: CO/C=C(/C(=O)OC)c1ccccc1Oc1cc(Oc2ccccc2C#N)ncn1 [Azoxystrobin, azoxystrobin]
- P. xanthii % Control ([1]; Azoxystrobin 0.00001% ai/v): 17.66% de
- Pest Severity Score 0-4 ([1]; Azoxystrobin 0.00001% ai/v): 2.67 ab
- P. xanthii % Control ([1]; Azoxystrobin 0.0001% ai/v): 44.23% c
- Pest Severity Score 0-4 ([1]; Azoxystrobin 0.0001% ai/v): 1.75 c
- P. xanthii % Control ([1]; Azoxystrobin 0.1% ai/v): 97.62% a
- Pest Severity Score 0-4 ([1]; Azoxystrobin 0.1% ai/v): 0.08 e

SMILES: CC1(C)CCC(Cc2ccc(Cl)cc2)C1(O)Cn1cncn1 (stereo not shown) [Metconazole, metconazole]
- F. graminiearum % Control (Fusarium graminearum; Metconazole 0.001% ai/v): 27.80% cde
- Spore Diameter (cm) (Fusarium graminearum; Metconazole 0.001% ai/v): 1.00 b cm
- F. graminiearum % Control (Fusarium graminearum; Metconazole 0.01% ai/v): 66.98% ab
- Spore Diameter (cm) (Fusarium graminearum; Metconazole 0.01% ai/v): 0.50 cd cm
- F. graminiearum % Control (Fusarium graminearum; Metconazole 1% ai/v): 93.08% a
- Spore Diameter (cm) (Fusarium graminearum; Metconazole 1% ai/v): 0.17 cm·days

SMILES: CSCCC(O)C(=O)O (stereo not shown) [HMTBA, 2-hydroxy-4(methylthio)butanoic acid]
- phytotoxic effects (lettuce): no phytotoxic effects were recorded
- plant growth (height and width) (lettuce): unchanged from the untreated check
- F. graminiearum % Control (Fusarium graminearum; 0.1% HMTBA): 4.93% ef
- Spore Diameter (cm) (Fusarium graminearum; 0.1% HMTBA): 1.47 a cm
- Strawberry Phytotoxicity Rating (0-10) (strawberry; Festival variety, strawberry): 0.0 a
- phytotoxic effects (strawberry): no phytotoxic effects were recorded
- plant growth (height and width) (strawberry): unchanged from the untreated check
- Pepper Phytotoxicity Rating (0-10) (pepper; Compadre variety, pepper): 0.0 a
- phytotoxic effects (pepper): no phytotoxic effects were recorded
- plant growth (height and width) (pepper): unchanged from the untreated check
- phytotoxic effects (cucumber): no phytotoxic effects were recorded
- plant growth (height and width) (cucumber): unchanged from the untreated check
- B. cinerea Mycelial Growth % Control (Botrytis cinerea; 0.1% HMTBA): 10.08% de
- B. cinerea Mycelial Growth Diameter (cm) (Botrytis cinerea; 0.1% HMTBA): 2.03 ab cm
- P. xanthii % Control ([1]; 0.1% HMTBA): 4.46% ef
- Pest Severity Score 0-4 ([1]; 0.1% HMTBA): 3.17 a

SMILES: O=C1C2CC=CCC2C(=O)N1SC(Cl)(Cl)Cl (stereo not shown) [Captan, captan]
- B. cinerea Mycelial Growth % Control (Botrytis cinerea; Captan 0.001% ai/v): 21.05% cd
- B. cinerea Mycelial Growth Diameter (cm) (Botrytis cinerea; Captan 0.001% ai/v): 1.68 bc cm
- B. cinerea Mycelial Growth % Control (Botrytis cinerea; Captan 0.01% ai/v): 53.68% b
- B. cinerea Mycelial Growth Diameter (cm) (Botrytis cinerea; Captan 0.01% ai/v): 0.97 cm·days
- B. cinerea Mycelial Growth % Control (Botrytis cinerea; Captan 1% ai/v): 96.81% a
- B. cinerea Mycelial Growth Diameter (cm) (Botrytis cinerea; Captan 1% ai/v): 0.07 e cm
